# How the values were obtained:
# [1] = both, human, pH 7.4
# Procedure: Liver S9 fractions are obtained from Xenotech LLC (Lenexa, Mo.). The lot is from a pool of two donors, one male and one female. The liver S9 fraction is prepared and diluted using a homogenization buffer consisting of 50 mM Tris, pH 7.4 at 4° C. and 150 mM potassium chloride without EDTA. Prodrug compounds are incubated in the liver homogenate for 2 hours at 37° C., after which the concentration of compound is determined by LC/MS/MS. Hydrolysis of Clopidogrel to Clopidogrel Carboxylic Acid is utilized as an assay positive control.
# Incubations are conducted in 96-well format and all prodrug compounds are run in duplicate on each day. Stock prodrug compound solutions are prepared in water at a concentration of 1 mM. Human liver S9 fraction is diluted to a final protein concentration of 0.5 mg/mL in 100 mM PBS buffer, pH 7.4. […]
# LC/MS/MS quantification of compound formed during the incubation is performed on a Sciex API 4000, Analyst version 1.4.2, TURBOIONSPRAY®, positive ionization, and Selected Reaction Monitoring (SRM). […]
# Concentrations of hydrolyzed compound in the incubation mixtures are determined from standard curves prepared by replicate two-fold dilution starting at 10 μM in 100 mM PBS pH 7.4 and subsequently quenched with methanol-internal standard solution identical to the samples. Averages and standard deviations are calculated using MICROSOFT® Office EXCEL® 2007. […]
# [2] = tested on: PCP-induced hyperlocomotor activity in rats; assay: Reversal of Phencyclidine (PCP)-Induced Hyperlocomotor Activity in Rats; assay type: in vivo; conditions: Rattus norvegicus
# Source text: Administration of NMDA receptor antagonists, such as ketamine or phencyclidine (PCP), produces psychotomimetic-like effects in humans that are similar to those symptoms observed in patients with schizophrenia.
# Motor activity is monitored by placing individual male, Sprague-Dawley (Harlan, Indianapolis, Ind.) rats in transparent, plastic shoe-box cages of the dimensions 45×25×20 cm, with 1 cm depth of wood chips as bedding, and a metal grill on top of the cage. Motor monitors (Kinder Scientific) consist of a rectangular rack of 12 photobeams arranged in an 8×4 formation, (or a high density grouping of 22 in a 15×7 pattern) at a height of 5 cm, with a second rack (for measuring rearing behaviors) at a height of 15 cm. The shoe box cage is placed inside of these racks, with the racks on a 3 foot high tabletop in an isolated room. […] On the test day, rats are placed in the test cage and allowed to acclimate for 30 minutes prior to PCP challenge; rats are monitored for an additional 60 minutes following PCP administration.
# Data analysis and ED50 calculations are conducted using GraphPad PRISM® (San Diego, Calif. USA). Power analyses have determined that 8-10 rats per group are needed to have appropriate statistical power for detecting treatment differences (power=0.8). […]
# human mGlu2 receptor = molecular target: T1, human mGlu2 receptor (Homo sapiens, UniProt Q14416); assay: Human mGlu2 Agonist FLIPR Assay; assay type: cell-based
# T1 construct: expressed in transfected cells; host or cells: AV-12 cells (Syrian hamster fibroblasts), co-transfected with rat EAAT1 and Galpha15
# Source text: AV-12 cell lines, derived from Syrian Hamster fibroblasts and stably expressing the human mGlu2 receptor and co-transfected with the rat glutamate transporter EAAT 1 (Excitatory Amino Acid Transporter 1) and the Gα15 subunit, are used for these studies. The expression of Gα15 allows Gi-coupled receptors to signal through the phospholipase C pathway, resulting in the ability to measure receptor activation by a fluorometric calcium response assay. The cell lines are maintained by culturing in Dulbecco's Modified Eagle's Medium (DMEM) with high glucose and pyridoxine hydrochloride supplemented with 5% dialyzed fetal bovine serum, 1 mM sodium pyruvate, 10 mM HEPES [4-(2-hydroxyethyl)-1-piperazineethanesulfonic acid], 1 mM of L-glutamine, and 5 μg/mL blasticidin (all media are purchased from Invitrogen). Confluent cultures are passaged biweekly using an enzyme-free dissociation solution (Chemicon S-004-B).
# Intracellular calcium levels are monitored before and after the addition of compounds using a Fluorometric Imaging Plate Reader (FLIPR®, Molecular Devices). The assay buffer is comprised of Hank's Buffered Salt Solution (HBSS; Sigma) supplemented with 20 mM HEPES. […] The dye solution is removed and replaced with fresh assay buffer (50 μL per well). […] Results are analyzed using PRISM® v4.03 (GraphPad Software). […] Exemplified compounds of the present invention are solubilized as 10 mM stocks in 0.1N NaOH and stored at −20 C. They are diluted through a three-fold dilution series into assay buffer. After taking an initial 5-sec fluorescent read on the FLIPR® instrument, a compound of the present invention is added to the cell plate (50 μL per well). Data are collected every second for the first 30 seconds and then every 3 seconds for a total of 90 seconds in order to detect agonist activity. The maximal response is defined as that induced by ECmax (100 μM glutamate). The compound effect is measured as maximal minus minimal peak heights in relative fluorescent units (RFUs) corrected for basal fluorescence measured in the absence of glutamate. Determinations are carried out using single plates. Agonist effects are quantified as percent stimulation induced by compound alone relative to the maximal glutamate response. All data are calculated as relative EC50 values using a four-parameter logistic curve fitting program (ACTIVITY BASE® v5.3.1.22).
# [3] = tested on: stress-induced hyperthermia in rats; assay: Attenuation of Stress-Induced Hyperthermia in Rats; assay type: in vivo, rat; conditions: i.p.
# Source text: In many anxiety disorders, hyperthermia occurs as part of the pathology and is considered a symptom of the disease. Compounds which attenuate stress-induced hyperthermia in animals are believed to be useful in treating anxiety disorders in humans. Generalized anxiety disorder is an example of such disorders that may be treated with such compounds. The conventional and minimally-invasive method for analyzing stress-induced hyperthermia is by measuring body temperature, and stress-induced increases in body temperature, via rectal thermometer. Male Fischer F-344 rats (Harlan, Indianapolis, Ind., USA) weighing between 275-350 g are tested. All animals are individually-housed with food and automated water available ad libitum, and maintained on a 12 h light/dark cycle (lights on at 06:00) Animals are fasted for approximately 12-18 hours before the experiment, which is conducted during the light phase. Rats are dosed one hour prior to the experiment by intraperitoneal (i.p.) route of administration in a dose volume of 1 mL/kg. The vehicle used was water with enough NaOH added to achieve a pH between 5-7. The mGluR5 antagonist MTEP (3-[(2-methyl-1,3-thiazol-4-yl)ethynyl]pyridine) and mGlu2/3 agonist LY317206 were used as quality controls, given that they produced reliable efficacy in this model Immediately following dosing, rats are returned to their home cage, and the experimenter turns off the lights and leaves the room. The dosing room is darkened for the remainder of the 1-hr pretreatment period.
# After the pretreatment period, rats are taken individually to a brightly lit adjacent room where baseline body temperatures are determined by insertion of a rectal probe lubricated with mineral oil. Body temperature is assessed using a […] BAT-12® Microprobe Thermometer with a […] RET-2® rat rectal probe (Physitemp Instruments Inc., Clifton, N.J., USA). The probe is inserted approximately 2 cm into the rectum, to measure the core body temperature (this is the baseline body temperature, T1, in degrees Celsius). Ten minutes later a second body temperature measurement is recorded (T2). […]
# T1 sequence (Q14416 19-872): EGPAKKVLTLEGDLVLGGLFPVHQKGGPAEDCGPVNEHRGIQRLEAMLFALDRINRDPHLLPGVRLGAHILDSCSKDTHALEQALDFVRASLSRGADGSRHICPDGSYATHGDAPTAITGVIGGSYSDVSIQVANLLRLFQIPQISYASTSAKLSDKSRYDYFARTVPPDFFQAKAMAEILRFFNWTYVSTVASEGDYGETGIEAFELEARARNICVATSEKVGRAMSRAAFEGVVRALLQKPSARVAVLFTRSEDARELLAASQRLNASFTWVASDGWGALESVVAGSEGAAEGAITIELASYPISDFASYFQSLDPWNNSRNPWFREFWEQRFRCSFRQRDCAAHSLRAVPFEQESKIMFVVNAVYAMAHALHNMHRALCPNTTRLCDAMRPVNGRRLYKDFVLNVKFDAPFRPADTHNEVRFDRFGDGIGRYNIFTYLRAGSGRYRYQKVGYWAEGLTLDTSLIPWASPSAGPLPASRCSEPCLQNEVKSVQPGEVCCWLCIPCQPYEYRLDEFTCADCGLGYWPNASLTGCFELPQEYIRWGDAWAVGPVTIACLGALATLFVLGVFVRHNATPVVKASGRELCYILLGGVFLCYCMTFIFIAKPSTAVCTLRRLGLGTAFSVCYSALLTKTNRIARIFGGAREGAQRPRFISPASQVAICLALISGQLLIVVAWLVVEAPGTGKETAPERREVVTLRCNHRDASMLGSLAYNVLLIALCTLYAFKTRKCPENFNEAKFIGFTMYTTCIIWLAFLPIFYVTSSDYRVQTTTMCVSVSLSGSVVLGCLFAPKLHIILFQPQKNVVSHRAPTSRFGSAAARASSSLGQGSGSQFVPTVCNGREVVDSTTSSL
smiles,measurement,setting,value
COC(=O)[C@H](c1ccccc1Cl)N1CCc2sccc2C1 [Clopidogrel],Hydrolysis of Clopidogrel to Clopidogrel Carboxylic Acid (positive control),[1],73.0%
"N[C@@]1(C(=O)O)C[C@H](Sc2nc[nH]n2)[C@H]2[C@H](C(=O)O)[C@H]21 [Example 10, (1R,2S,4S,5R,6R)-2-amino-4-(1H-1,2,4-triazol-3-ylsulfanyl)bicyclo[3.1.0]hexane-2,6-dicarboxylic acid]",ED50,"[2]; i.p. administration, 30 minutes prior to 5 mg/kg PCP",0.9 mg/kg
same,EC50,"human mGlu2 receptor; hMGLUR2 FLIPR assay, AV-12 cells expressing human mGlu2, calcium response, read-out: Relative EC50",0.0691 µM
same,Emax,"human mGlu2 receptor; percent stimulation relative to maximal glutamate response (100 μM glutamate), read-out: Relative % Efficacy",89%
same,maximal reduction of stress-induced hyperthermia,[3]; at 10 mg/kg,75%
same,T35 (dose producing 35% reduction in stress-induced hyperthermic response),[3]; one hour pretreatment,1.7 mg/kg
"CSCC[C@H](N)C(=O)N[C@@]1(C(=O)O)C[C@H](Sc2nnc[nH]2)[C@H]2[C@H](C(=O)O)[C@H]21.Cl [Example 25, (1R,2S,4S,5R,6R)-2-(L-methionylamino)-4-(4H-1,2,4-triazol-3-ylsulfanyl) bicyclo[3.1.0] hexane-2,6-dicarboxylic acid hydrochloride]",ED50,"[2]; oral administration (prodrug), overnight fasted, 4 hours prior to 5 mg/kg PCP",6.4 mg/kg
